Assay [1] deals with T1, Ste2p mutant receptor Cys1H4 (M54I) (Saccharomyces cerevisiae, UniProt D6VTK4, M54I).
T1 construct: expressed in transfected cells; host or cells: S. cerevisiae yJB013 (ste2-deleted reporter strain), p416GPD plasmid
As to the kind of experiment: cell-based. It counts as cell-based. The protocol: (§1) Yeast were grown overnight at 30 °C and 225 rpm in 250 mL Erlenmeyer flasks and then diluted to an OD600 = 0.1 in the appropriate medium, typically CSM-Ura or SDCAA-Ura, or commercially sourced pooled human urine. Immediately after dilution, the peptide ligand was added. The culture was incubated for 2.5 h at 30 °C with 225 rpm shaking. Cells were centrifuged at 2000g for 5 min and supernatant was removed. Cells were resuspended in 1x PBS in preparation for flow cytometry.
(§2) Analytical flow cytometry was performed with the BD LSR II (BD Biosciences, San Jose, USA); yEGFP was read on the Alexa-Flour 488 channel, and mKate was read on the PE-Texas Red channel. Receptor output was measured by dividing the mean GFP fluorescence by the mean RFP fluorescence for a population. EC50 values were calculated by fitting the receptor output to a four-parameter logistic curve, and determining which ligand concentration produced an output equivalent to half of the receptor’s maximum output.
(§3) The dose response curves were modeled to fit the following four-parameter logistic curve: [drawing 2] where a is the minimum value, b is the maximum value, c is the EC50, and d is the hill coefficient. The fluorescent receptor output, y, to a given concentration x of ligand, was determined by the following equation: [drawing 3] where GFP is downstream of the receptor pathway and mKate is constitutively expressed (see Strain and Plasmid Construction, Methods Section).
(§4) Data were fit to the Michaelis–Menten equation: [drawing 4] where the fluorescent receptor output, y, to a given concentration x of ligand, was determined by the following equation: [drawing 5] where GFP is downstream of the receptor pathway and mKate is constitutively expressed (see Strain and Plasmid Construction, Methods Section).

For assay [2], the target named is T2, Ste2p mutant receptor Cys1H5 (M54I, C59S) (Saccharomyces cerevisiae, UniProt D6VTK4, C59S/M54I).
T2 construct: expressed in transfected cells; host or cells: S. cerevisiae yJB013 (ste2-deleted reporter strain), p416GPD plasmid
T2 sequence (D6VTK4 whole entry M54I/C59S): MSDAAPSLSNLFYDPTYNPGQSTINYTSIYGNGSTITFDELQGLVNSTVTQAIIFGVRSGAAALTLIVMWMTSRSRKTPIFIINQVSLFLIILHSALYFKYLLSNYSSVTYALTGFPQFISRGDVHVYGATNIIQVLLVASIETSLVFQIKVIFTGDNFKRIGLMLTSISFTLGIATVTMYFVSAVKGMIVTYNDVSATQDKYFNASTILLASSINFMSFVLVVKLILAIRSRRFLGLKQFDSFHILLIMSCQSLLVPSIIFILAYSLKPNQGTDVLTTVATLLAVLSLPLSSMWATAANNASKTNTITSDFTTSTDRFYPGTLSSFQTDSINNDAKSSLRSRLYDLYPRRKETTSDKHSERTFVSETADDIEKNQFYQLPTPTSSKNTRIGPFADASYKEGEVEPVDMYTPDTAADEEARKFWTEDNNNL
Briefly: cell-based. It counts as cell-based. The method, then: as §1, §2, §3, §4

Assay [3] deals with T3, Ste2p mutant receptor Cys2K2 (Saccharomyces cerevisiae, UniProt D6VTK4, M218K/M54I/Q272Y).
T3 construct: expressed in transfected cells; host or cells: S. cerevisiae yJB013 (ste2-deleted reporter strain), p416GPD plasmid
T3 sequence (D6VTK4 whole entry M54I/M218K/Q272Y): as the sequence (D6VTK4 whole entry M54I/C59S) above, with S59C, M218K, Q272Y counted along it
Briefly: cell-based. The protocol:
as §1, §2, §3, §4

Assay [4] has as its target T4, Ste2p mutant receptor Cys2K3 (Saccharomyces cerevisiae, UniProt D6VTK4, K225T/M218T/M54I/N158Y/S356T).
T4 construct: expressed in transfected cells; host or cells: S. cerevisiae yJB013 (ste2-deleted reporter strain), p416GPD plasmid
As to the kind of experiment: cell-based. The protocol:
as §1, §2, §3, §4

For assay [5], the target named is T5, Ste2p mutant receptor Cys4L3 (Saccharomyces cerevisiae, UniProt D6VTK4, K225T/M218T/M54I/N158F/R74K/T167R/Y26F).
T5 construct: expressed in transfected cells; host or cells: S. cerevisiae yJB013 (ste2-deleted reporter strain), p416GPD plasmid
T5 sequence (D6VTK4 1-319 Y26F/M54I/R74K/N158F/T167R/M218T/K225T): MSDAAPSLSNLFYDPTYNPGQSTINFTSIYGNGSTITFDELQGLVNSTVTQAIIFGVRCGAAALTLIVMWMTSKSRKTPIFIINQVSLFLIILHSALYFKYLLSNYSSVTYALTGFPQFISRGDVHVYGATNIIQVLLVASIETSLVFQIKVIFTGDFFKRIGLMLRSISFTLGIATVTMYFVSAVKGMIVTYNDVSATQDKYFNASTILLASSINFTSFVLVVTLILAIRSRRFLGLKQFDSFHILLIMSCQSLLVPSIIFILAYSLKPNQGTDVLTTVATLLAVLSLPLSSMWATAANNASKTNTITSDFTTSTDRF
Briefly: cell-based. The protocol:
as §1, §2, §3, §4

Assay [6] addresses T6, Ste2p mutant receptor Cys5R2 (Saccharomyces cerevisiae, UniProt D6VTK4, F55L/K225T/M218T/M54I/N158Y/R74K/Y26F).
T6 construct: expressed in transfected cells; host or cells: S. cerevisiae yJB013 (ste2-deleted reporter strain), p416GPD plasmid
As to the kind of experiment: cell-based. The protocol:
as §1, §2, §3, §4

Assay [7] has as its target T7, Ste2p mutant receptor Cys5R7 (Saccharomyces cerevisiae, UniProt D6VTK4, D3N/K225T/L228F/M218T/M54I/N158Y).
T7 construct: expressed in transfected cells; host or cells: S. cerevisiae yJB013 (ste2-deleted reporter strain), p416GPD plasmid
As to the kind of experiment: cell-based. The method, then: as §1, §2, §3, §4

The target of assay [8] is T8, Ste2p mutant receptor Cys5R9 (Saccharomyces cerevisiae, UniProt D6VTK4, K225T/L228F/M218T/M54I/N158F/R74K/S121R/T167R/Y26F).
T8 construct: expressed in transfected cells; host or cells: S. cerevisiae yJB013 (ste2-deleted reporter strain), p416GPD plasmid
T8 sequence (D6VTK4 1-319 Y26F/M54I/R74K/S121R/N158F/T167R/M218T/K225T/L228F): as the sequence (D6VTK4 1-319 Y26F/M54I/R74K/N158F/T167R/M218T/K225T) above, with S121R, L228F counted along it
Briefly: cell-based. The method, then: as §1, §2, §3, §4

The test system of assay [9] is Round 3 Ste2p mutant receptors. Briefly: Counter-sorting for specificity: round 3 Ste2p mutants evolved for Variant 56. It is filed as cell-based, Saccharomyces cerevisiae. Particulars: library sorted with 100 nM Variant 56, counter-sorted against 100 nM α-factor; Supplementary Figure 1. The method, then:
Specificity can be evolved
Supplementary Figure 1- Receptors can be counter-sorted against alpha-factor to increase specificity towards the target ligand- Variant […]
Variant 56 (sequence: […]), which contains a single-amino acid substitution compared to α-factor. In round 1, error prone PCR was performed on Ste2p to create a library of mutant receptors that were subjected to sorting with 100 nM Variant 56. The best mutant isolated from this sort was re-mutagenized to create a new library. The new library was sorted in round 2 with 100 nM Variant 56, and did show an improvement in detecting Variant 56 (panel a). In round 3, the sorted library from round 2 was screened […]
(also on this page, place not known: 0 1 2 3 4 Ste2p 1 2 Fold Increase Over Inac ve Receptor (GFP/RFP) Var. 56 0 1 2 3 4 Ste2p 1 2 3* Fold Increase Over Inac ve Receptor (GFP/RFP) α-factor 0.0 0.2 0.4 0.6 0.8 1.0 Ste2p 1 2 3* Rela ve Ac va on (Var. 56/α-factor) Rounds of Mutagenesis & Screening (a) (c) (b)) […]
(1 picture or pasted object on this page, not shown here)

The next assay deals with T9, Ste2p (wild type) (Saccharomyces cerevisiae, UniProt D6VTK4).
T9 construct: expressed in transfected cells; host or cells: S. cerevisiae YJB015 (MPY578t5 ste2::LEU2, fus1::yeGFP, TRP1::mKate) carrying plasmid pJB036
T9 sequence (D6VTK4 1-431): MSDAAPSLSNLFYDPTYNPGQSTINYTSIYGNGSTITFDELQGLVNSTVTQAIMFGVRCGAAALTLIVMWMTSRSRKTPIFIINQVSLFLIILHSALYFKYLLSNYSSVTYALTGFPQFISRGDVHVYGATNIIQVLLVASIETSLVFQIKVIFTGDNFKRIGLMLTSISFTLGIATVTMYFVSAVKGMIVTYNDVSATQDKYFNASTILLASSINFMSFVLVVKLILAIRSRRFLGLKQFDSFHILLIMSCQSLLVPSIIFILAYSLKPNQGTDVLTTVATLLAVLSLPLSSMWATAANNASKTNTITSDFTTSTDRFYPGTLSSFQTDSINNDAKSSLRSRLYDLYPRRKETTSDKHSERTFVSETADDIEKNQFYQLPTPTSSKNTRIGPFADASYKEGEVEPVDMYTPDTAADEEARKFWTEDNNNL
Briefly: Yeast GFP/RFP reporter response of native receptor Ste2p to peptide ligand (flow cytometry). It is filed as cell-based. The protocol: as §1
Analytical flow cytometry was performed with the BD LSR II (BD Biosciences, San Jose, USA); yEGFP was read on the Alexa-Flour 488 channel, and mKate was read on the PE-Texas Red channel. Receptor output was measured by dividing the mean GFP fluorescence by the mean RFP fluorescence for a population. EC50 values were calculated by fitting the receptor output to a four-parameter logistic curve, and determining which ligand concentration produced an output equivalent to half of the receptor’s maximum output. […]
as §4
For orientation: A flow cytometer gives signals particle by particle.

Assay [10] deals with T5, Ste2p mutant receptor Cys4L3. As to the kind of experiment: Receptor Cys4L3 response in trypsinized pooled human urine. It is filed as cell-based. To be noted: 500 μM ligand; pooled human urine digested with trypsin (50% Tryp-LE, 37 °C overnight, boiled); n = 3. The method, then: as §1, §2
(§5) When trypsinized urine was used as the sample matrix, urine was mixed with Tryp-LE Express (Life Technologies, Grand Island, USA) to a final concentration of 50%. Mixtures were incubated at 37 °C overnight. Trypsin was inactivated by boiling the samples at 99 °C for 10 min. Samples were stored at −80 °C until assayed.

For assay [11], the target named is T6, Ste2p mutant receptor Cys5R2. As to the kind of experiment: Receptor Cys5R2 response in trypsinized pooled human urine. It is filed as cell-based. Particulars: 500 μM ligand; pooled human urine digested with trypsin (50% Tryp-LE, 37 °C overnight, boiled); n = 3. The method, then: as §1, §2, §5
Assay [12] has as its target T7, Ste2p mutant receptor Cys5R7. Briefly: Receptor Cys5R7 response in trypsinized pooled human urine. It is filed as cell-based. Particulars: 500 μM ligand; pooled human urine digested with trypsin (50% Tryp-LE, 37 °C overnight, boiled); n = 3. The protocol: as §1, §2, §5
For assay [13], the target named is T8, Ste2p mutant receptor Cys5R9. Briefly: Receptor Cys5R9 response in trypsinized pooled human urine. To be noted: 500 μM ligand; pooled human urine digested with trypsin (50% Tryp-LE, 37 °C overnight, boiled); n = 3. It is filed as cell-based. The protocol: as §1, §2, §5

Ends that are not written are not given here.

T1 sequence (D6VTK4 whole entry M54I): as the sequence (D6VTK4 whole entry M54I/C59S) above, with S59C counted along it
T7 sequence (D6VTK4 other isoform, or with tags, fused parts or gaps D3N/M54I/N158Y/M218T/K225T/L228F): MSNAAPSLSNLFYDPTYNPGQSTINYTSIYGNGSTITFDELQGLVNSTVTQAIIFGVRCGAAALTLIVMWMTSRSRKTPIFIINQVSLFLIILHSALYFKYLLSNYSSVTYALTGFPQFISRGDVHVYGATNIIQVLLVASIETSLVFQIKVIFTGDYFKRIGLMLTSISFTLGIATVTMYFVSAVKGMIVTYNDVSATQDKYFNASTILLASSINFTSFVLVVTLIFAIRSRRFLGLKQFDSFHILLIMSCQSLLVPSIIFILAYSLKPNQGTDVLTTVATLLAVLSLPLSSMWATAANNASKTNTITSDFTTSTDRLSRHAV
T6 sequence (D6VTK4 1-319 Y26F/M54I/F55L/R74K/N158Y/M218T/K225T): as the sequence (D6VTK4 1-319 Y26F/M54I/R74K/N158F/T167R/M218T/K225T) above, with F55L, F158Y, R167T counted along it
T4 sequence (D6VTK4 whole entry M54I/N158Y/M218T/K225T/S356T): as the sequence (D6VTK4 whole entry M54I/C59S) above, with S59C, N158Y, M218T, K225T, S356T counted along it

Usually EC50 stands for the concentration giving half of the maximal effect. A low value points to an effect from little substance. ALDFAVGEPMK-NH2 [Cys5 amidated]: the concentration giving a half-maximal response (EC50) is 158000 nM in assay [1]; 234000 nM in assay [2]; 81300 nM in assay [3]; 6170 nM in assay [4]; 3470 nM in assay [5]; 4900 nM in [6]. Besides, the EC50 in [7] is 2690 nM; in assay [8] it was 3.47 µM.

Consider ALALKPGEPMY [Cys2], for which the figures for the concentration for a half-maximal effect (EC50) in assay [3] and in [4] were 316 nM and 117 nM, respectively.

Regarding “WHYLQLKPGQPMY [Variant 56, α-factor variant with a single-amino acid substitution]”, the “Activation of round 3 mutants (fold increase GFP/RFP; relative activation Var. 56/α-factor)” value in [9] was “preferentially activated”.

Regarding `CSCC[C@H](NC(=O)[C@@H]1CCCN1C(=O)[C@H](CCC(N)=O)NC(=O)CNC(=O)[C@@H]1CCCN1C(=O)[C@H](CCCCN)NC(=O)[C@H](CC(C)C)NC(=O)[C@H](CCC(N)=O)NC(=O)[C@H](CC(C)C)NC(=O)[C@H](Cc1c[nH]c2ccccc12)NC(=O)[C@H](Cc1c[nH]cn1)NC(=O)[C@@H](N)Cc1c[nH]c2ccccc12)C(=O)N[C@@H](Cc1ccc(O)cc1)C(N)=O` [α-factor amidated, reference compound], the EC50 is 229 nM on Ste2p (wild type) (log10 of EC50 in M ± error, 4-parameter logistic fit of GFP/RFP output, 2.5 h, 30 °C, flow cytometry, Supplementary Table 1); 50.1 nM in [1]; 58.9 nM in [2]; 70.8 nM in assay [3]; 58.9 nM in [4]; 6.76 nM in assay [5]. Moreover, the concentration for a half-maximal effect (EC50) is 9.12 nM in [6] and 6.31 nM in assay [7].

Regarding “ALDFAVGEYNK-NH2 [Cys7 amidated, C-terminally amidated cystatin C tryptic peptide Cys7]”, the “Ligand concentration at which the receptor responds (sensitivity)” value turned out to be 1 mM at Ste2p (wild type) (as stated in text / figure legend); 1 mM in assay [1] (Supplementary Figure 3C legend); 1 mM in assay [2] (Supplementary Figure 3C legend); 100 µM in assay [5] (Cys4 value with a new stock of Cys4 peptide); 100 µM in assay [6]; 50 µM in [7]. In assay [8], the “Ligand concentration at which the receptor responds (sensitivity)” value was found to be 500 µM. In assay [7] (receptor Cys5R7 versus Ste2p, same ligand), the Improvement in sensitivity is given as 20 fold. The “Detection of ligand in pooled human urine” value in assay [10], in assay [11], in assay [12] and in [13] was “able to detect” each time.

Turning to HALALKPGEPMY [Cys1], the EC50 in assay [1] is 141 nM; in assay [2], 129 nM.
